Patent US20240247021A1, “CRYSTAL FORMS OF KUDING SAPONIN A COMPOUND, PHARMACEUTICAL COMPOSITION AND USE THEREOF” (SHANGHAI KE PHARMACEUTICAL CO., LTD, priority 2021, published 2024)
Where two headings read alike, the source gives them in different places.

Assays:
[1] = Conditions under which the crystal forms exist stably; type: physicochemical
[2] = Hygroscopicity test by dynamic vapor sorption (DVS); type: physicochemical; settings: for Degree of hygroscopicity: criteria of Table 12
Method: Dynamic vapor sorption (DVS) is a test method for analyzing the moisture sorption performance of a sample and recording the moisture sorption isotherm, and it determines the stability of a compound by identifying its sorption capacity for moisture. Methods for performing dynamic vapor sorption analysis on the crystals are well known to those skilled in the art. In the present invention, the hygroscopicity of the crystal forms A, C, and J of Kudinoside A is determined by using a dynamic vapor sorption instrument, and the specific measurement conditions are shown in Table 7.
About 10 mg of each of the crystal forms A, C, and J obtained in Examples 1-3 was tested for its hygroscopicity using a dynamic vapor sorption (DVS) instrument (test conditions: a temperature of 25° C. and a relative humidity of 0%-80%), and the hygroscopicity of each crystal form was judged using the criteria shown in Table 12 below. For the steps and the judgment criteria of the hygroscopicity test, reference is made to the General Requirement 9103-Guidelines for Hygroscopicity in Pharmacopoeia of the People's Republic of China 2020 (Volume IV).

[3] = Competition experiment of crystal form A and crystal form J in water suspension; type: physicochemical; settings: equal mixture of crystal forms A and J suspended in water, stirred at room temperature 3 days; XRPD of wet and dry sample
Method: Firstly, an initial mixing sample was prepared: samples of the crystal form A and the crystal form J of Kudinoside A with the equivalent quantity were uniformly mixed, and sampling was carried out for XRPD detection.
Water was added to the sample to form a suspension, which was stirred at room temperature and then centrifuged 3 days later, and sampling was carried out for XRPD detection (wet sample); after drying under vacuum at 30° C., the sample was subjected to XRPD detection (dry sample).

[4] = Thermogravimetric analysis (TGA); type: physicochemical; settings: 10 K/min, nitrogen
Excerpt: Thermogravimetric analysis, or TGA for short, refers to a thermal analysis method for measuring the relationship of the mass of a sample to be detected with the change of temperature or time at a programmed temperature, and it is used to study information related to the quality of the sample, such as thermal stability, components of intermediate products possibly generated, etc. It is often used in combination with other thermal analysis methods for comprehensive thermal analysis. Methods for performing thermogravimetric analysis on the crystals are well known to those skilled in the art. In the present invention, the crystal forms A, C, and J of Kudinoside A are determined by using a thermogravimetric analyzer, and the specific measurement conditions are shown in Table 6.

[5] = DVS, 25° C., relative humidity 0%-80%
[6] = Accelerated test (40 ± 2° C., humidity 75% ± 5%), 0 month
[7] = Accelerated test (40 ± 2° C., humidity 75% ± 5%), 1 month
[8] = Accelerated test (40 ± 2° C., humidity 75% ± 5%), 3 month
[9] = Accelerated test (40 ± 2° C., humidity 75% ± 5%), 4 month
[10] = Accelerated test (40 ± 2° C., humidity 75% ± 5%), 5 month
[11] = Accelerated test (40 ± 2° C., humidity 75% ± 5%), 6 month
[12] = Long-term test 1 (25 ± 2° C., humidity 60% ± 5%), 0 month
[13] = Long-term test 1 (25 ± 2° C., humidity 60% ± 5%), 1 month
[14] = Long-term test 1 (25 ± 2° C., humidity 60% ± 5%), 3 month
[15] = Long-term test 1 (25 ± 2° C., humidity 60% ± 5%), 4 month
[16] = Long-term test 1 (25 ± 2° C., humidity 60% ± 5%), 6 month
[17] = Long-term test 1 (25 ± 2° C., humidity 60% ± 5%), 9 month
[18] = Long-term test 1 (25 ± 2° C., humidity 60% ± 5%), 12 month
[19] = Long-term test 1 (25 ± 2° C., humidity 60% ± 5%), 24 month
[20] = Long-term test 2 (5 ± 3° C.), 0 month
[21] = Long-term test 2 (5 ± 3° C.), 1 month
[22] = Long-term test 2 (5 ± 3° C.), 3 month
[23] = Long-term test 2 (5 ± 3° C.), 4 month
[24] = Long-term test 2 (5 ± 3° C.), 6 month
[25] = Long-term test 2 (5 ± 3° C.), 9 month
[26] = Long-term test 2 (5 ± 3° C.), 12 month
[27] = Long-term test 2 (5 ± 3° C.), 24 month

weight change when the relative humidity is in the range of 0%-80% ([2]; DVS graph (FIGS. 1d, 2d, 3d)): about 12%
hygroscopicity ([2]; DVS graph (FIGS. 1d, 2d, 3d), judgment criteria of Table 7): hygroscopic
Increase in mass (relative humidity: 0%-80%) [2, 5]: 12%
Degree of hygroscopicity [2, 5]: hygroscopic
Appearance [6]: White
Content of Kudinoside A [6]: 100.2 % of the labeled amount
Content of impurity F (Kudinoside D) [6]: 0.09%
Total content of impurities [6]: 0.09%
Appearance [7]: White
Content of Kudinoside A [7]: 101.7 % of the labeled amount
Content of impurity F (Kudinoside D) [7]: 0.17%
Total content of impurities [7]: 0.17%
Appearance [8]: White
Content of Kudinoside A [8]: 99.0 % of the labeled amount
Content of impurity F (Kudinoside D) [8]: 0.26%
Total content of impurities [8]: 0.43%
Appearance [9]: White
Content of Kudinoside A [9]: 98.0 % of the labeled amount
Content of impurity F (Kudinoside D) [9]: 0.29%
Total content of impurities [9]: 0.52%
Appearance [10]: White
Content of Kudinoside A [10]: 98.9 % of the labeled amount
Content of impurity F (Kudinoside D) [10]: 0.29%
Total content of impurities [10]: 0.60%
Appearance [11]: White
Content of Kudinoside A [11]: 98.4 % of the labeled amount
Content of impurity F (Kudinoside D) [11]: 0.29%
Total content of impurities [11]: 0.66%
Appearance [12]: White
Content of Kudinoside A [12]: 100.2 % of the labeled amount
Content of impurity F (Kudinoside D) [12]: 0.09%
Total content of impurities [12]: 0.09%
Appearance [13]: White
Content of Kudinoside A [13]: 101.4 % of the labeled amount
Content of impurity F (Kudinoside D) [13]: 0.09%
Total content of impurities [13]: 0.09%
Appearance [14]: White
Content of Kudinoside A [14]: 100.2 % of the labeled amount
Content of impurity F (Kudinoside D) [14]: 0.12%
Total content of impurities [14]: 0.12%
Appearance [15]: White
Content of Kudinoside A [15]: 99.2 % of the labeled amount
Content of impurity F (Kudinoside D) [15]: 0.13%
Total content of impurities [15]: 0.13%
Appearance [16]: White
Content of Kudinoside A [16]: 98.3 % of the labeled amount
Content of impurity F (Kudinoside D) [16]: 0.15%
Total content of impurities [16]: 0.15%
Appearance [17]: White
Content of Kudinoside A [17]: 98.8 % of the labeled amount
Content of impurity F (Kudinoside D) [17]: 0.19%
Total content of impurities [17]: 0.19%
Appearance [18]: White
Content of Kudinoside A [18]: 99.8 % of the labeled amount
Content of impurity F (Kudinoside D) [18]: 0.19%
Total content of impurities [18]: 0.19%
Appearance [19]: White
Content of Kudinoside A [19]: 100.2 % of the labeled amount
Content of impurity F (Kudinoside D) [19]: 0.21%
Total content of impurities [19]: 0.35%
Appearance [20]: White
Content of Kudinoside A [20]: 100.2 % of the labeled amount
Content of impurity F (Kudinoside D) [20]: 0.09%
Total content of impurities [20]: 0.09%
Appearance [21]: White
Content of Kudinoside A [21]: 101.8 % of the labeled amount
Content of impurity F (Kudinoside D) [21]: 0.08%
Total content of impurities [21]: 0.08%
Appearance [22]: White
Content of Kudinoside A [22]: 99.9 % of the labeled amount
Content of impurity F (Kudinoside D) [22]: 0.10%
Total content of impurities [22]: 0.10%
Appearance [23]: White
Content of Kudinoside A [23]: 99.8 % of the labeled amount
Content of impurity F (Kudinoside D) [23]: 0.08%
Total content of impurities [23]: 0.08%
Appearance [24]: White
Content of Kudinoside A [24]: 98.6 % of the labeled amount
Content of impurity F (Kudinoside D) [24]: 0.09%
Total content of impurities [24]: 0.09%
Appearance [25]: White
Content of Kudinoside A [25]: 99.2 % of the labeled amount
Content of impurity F (Kudinoside D) [25]: 0.09%
Total content of impurities [25]: 0.09%
Appearance [26]: White
Content of Kudinoside A [26]: 99.8 % of the labeled amount
Content of impurity F (Kudinoside D) [26]: 0.09%
Total content of impurities [26]: 0.09%
Appearance [27]: White
Content of Kudinoside A [27]: 101.3 % of the labeled amount
Content of impurity F (Kudinoside D) [27]: 0.08%
Total content of impurities [27]: 0.08%
crystal form conversion [3]: tends to convert to the crystal form J
decomposition temperature [4]: about 318 °C
SMILES: C[C@@H]1O[C@@H](O[C@H]2[C@H](O[C@H]3CC[C@]4(C)[C@H]5C[C@H](O)C6=C7[C@]8(CC[C@](C)(OC8=O)[C@@]7(C)O)CC[C@@]6(C)[C@]5(C)CC[C@H]4C3(C)C)OC[C@H](O)[C@@H]2O[C@@H]2O[C@H](CO)[C@@H](O)[C@H](O)[C@H]2O)[C@H](O)[C@H](O)[C@H]1O [crystal form A, Kudinoside A]
conditions under which the crystal form exists stably [1]: can exist stably as a dry powder at room temperature
Degree of hygroscopicity ([2]; DVS, 25° C., relative humidity 0%-80%, listed as A): Hygroscopic (The increase in mass is less than 15% but not less than 2%)
